In the test the target is T1, IL-17A/A (Homo sapiens, UniProt Q16552).
T1 construct: purchased Genscript Z03228
T1 sequence (Q16552 24-155): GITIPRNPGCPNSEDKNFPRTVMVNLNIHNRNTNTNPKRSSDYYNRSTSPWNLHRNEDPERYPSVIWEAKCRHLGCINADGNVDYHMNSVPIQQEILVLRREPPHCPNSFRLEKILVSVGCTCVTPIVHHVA
Kind of test: IL-17A/A HEK-Blue cell assay. It counts as cell-based. The settings on record: HEK-Blue IL-17A reporter cell line (HEK 293), IL-17A/A stimulation, 20 hours incubation, SEAP read at A630. A digest of the protocol:
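IC50 came from a 4-parameter fit of SEAP read at A630 (Quanti-Blue). Compound was titrated to a top final concentration of 10, 1 or 0.3 uM with 0.1% final DMSO and added just before IL-17A/A. Incubation lasted 20 hours in HEK293 cells engineered with IL-17RA, IL-17RC, Act1 and an NFκB-SEAP reporter.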
For orientation: IC50 means the concentration that inhibits the measured activity by half. Regarding `CCc1nonc1C(=O)N[C@H](c1cn2nc(C[C@H]3C[C@@H](C(F)(F)F)NC3=O)ccc2n1)C1CCC(F)(F)CC1` [Compound 17, N—((S)-(4,4-difluorocyclohexyl)(6-(((3R,5S)-2-oxo-5-(trifluoromethyl)pyrrolidin-3-yl)methyl)imidazo[1,2-b]pyridazin-2-yl)methyl)-4-ethyl-1,2,5-oxadiazole-3-carboxamide], the IC50 lay in the range of 0.1 to 1 µM.
As for `Cc1nonc1C(=O)N[C@H](c1cn2nc(C[C@H]3C[C@@H](C(F)(F)F)NC3=O)ccc2n1)C1CCC(F)(F)CC1` [Compound 18, N—((S)-(4,4-difluorocyclohexyl)(6-(((3R,5S)-2-oxo-5-(trifluoromethyl)pyrrolidin-3-yl)methyl)imidazo[1,2-b]pyridazin-2-yl)methyl)-4-methyl-1,2,5-oxadiazole-3-carboxamide], the figure is over 1 µM; as for `CCc1nonc1C(=O)N[C@H](c1cn2nc(C[C@H]3C[C@@H](C(F)(F)F)NC3=O)ccc2n1)C(C1CC1)C1CC1` [Compound 20, N—((S)-2,2-dicyclopropyl-1-(6-(((3R,5S)-2-oxo-5-(trifluoromethyl)pyrrolidin-3-yl)methyl)imidazo[1,2-b]pyridazin-2-yl)ethyl)-4-ethyl-1,2,5-oxadiazole-3-carboxamide], 0.1 to 1 µM; as for `Cc1nonc1C(=O)N[C@H](c1cn2nc(C[C@H]3C[C@@H](C(F)(F)F)NC3=O)ccc2n1)C(C1CC1)C1CC1` [Compound 21, N—((S)-2,2-dicyclopropyl-1-(6-(((3R,5S)-2-oxo-5-(trifluoromethyl)pyrrolidin-3-yl)methyl)imidazo[1,2-b]pyridazin-2-yl)ethyl)-4-methyl-1,2,5-oxadiazole-3-carboxamide], over 1 µM.
On to `CC[C@@H](c1ccc(F)cc1)[C@H](NC(=O)c1ccnn1CC)c1cn2nc(C[C@H]3C[C@@H](C(F)(F)F)NC3=O)ccc2n1` [Compound 22, 1-ethyl-N-((1S,2S)-2-(4-fluorophenyl)-1-(6-(((3R,5S)-2-oxo-5-(trifluoromethyl)pyrrolidin-3-yl)methyl)imidazo[1,2-b]pyridazin-2-yl)butyl)-1H-pyrazole-5-carboxamide], for which the IC50 is 0.1 to 1 µM.
On to `CCc1nonc1C(=O)N[C@H](c1cn2nc(C[C@H]3CCCNC3=O)ccc2n1)C(C1CC1)C1CC1` [Compound 35, N—((S)-2,2-dicyclopropyl-1-(6-(((R)-2-oxopiperidin-3-yl)methyl)imidazo[1,2-b]pyridazin-2-yl)ethyl)-4-ethyl-1,2,5-oxadiazole-3-carboxamide], for which the IC50 lay in the range of 0.1 to 1 µM.
The value for `Cc1nonc1C(=O)N[C@H](c1cn2nc(C[C@H]3CCCNC3=O)ccc2n1)C(C1CC1)C1CC1` [Compound 36, N—((S)-2,2-dicyclopropyl-1-(6-(((R)-2-oxopiperidin-3-yl)methyl)imidazo[1,2-b]pyridazin-2-yl)ethyl)-4-methyl-1,2,5-oxadiazole-3-carboxamide] was over 1 µM.
Consider `CCc1nonc1C(=O)N[C@H](c1cn2nc(C[C@H]3CCCNC3=O)ccc2n1)C1CCC(F)(F)CC1` [Compound 37, N—((S)-(4,4-difluorocyclohexyl)(6-(((R)-2-oxopiperidin-3-yl)methyl)imidazo[1,2-b]pyridazin-2-yl)methyl)-4-ethyl-1,2,5-oxadiazole-3-carboxamide], for which the IC50 is over 1 µM.
As for `Cc1nonc1C(=O)N[C@H](c1cn2nc(C[C@H]3CCCNC3=O)ccc2n1)C1CCC(F)(F)CC1` [Compound 38, N—((S)-(4,4-difluorocyclohexyl)(6-(((R)-2-oxopiperidin-3-yl)methyl)imidazo[1,2-b]pyridazin-2-yl)methyl)-4-methyl-1,2,5-oxadiazole-3-carboxamide], the figure is over 1 µM; as for `CCn1nccc1C(=O)N[C@H](c1cn2nc(C[C@@H]3CCCNC3=O)ccc2n1)[C@H]1CC[C@H](C)CC1` [Compound 39, 1-ethyl-N—((S)-((1r,4S)-4-methylcyclohexyl)(6-(((S)-2-oxopiperidin-3-yl)methyl)imidazo[1,2-b]pyridazin-2-yl)methyl)-1H-pyrazole-5-carboxamide], 0.1 to 1 µM; as for `CCn1nccc1C(=O)N[C@H](c1cn2nc(CC3CC(C)(C)CNC3=O)ccc2n1)[C@H]1CC[C@H](C)CC1` (stereo partly drawn) [Compound 58, N-((1S)-(6-((5,5-dimethyl-2-oxopiperidin-3-yl)methyl)imidazo[1,2-b]pyridazin-2-yl)((1r,4S)-4-methylcyclohexyl)methyl)-1-ethyl-1H-pyrazole-5-carboxamide], over 1 µM.
The value for `CC[C@@H]1CC(Cc2ccc3nc([C@@H](NC(=O)c4ccnn4CC)[C@H]4CC[C@H](C)CC4)cn3n2)C(=O)N1` (stereo partly drawn) [Compound 59, 1-ethyl-N-((1S)-(6-(((5R)-5-ethyl-2-oxopyrrolidin-3-yl)methyl)imidazo[1,2-b]pyridazin-2-yl)((1r,4S)-4-methylcyclohexyl)methyl)-1H-pyrazole-5-carboxamide] was 0.1 to 1 µM; that for `CCn1nccc1C(=O)N[C@H](c1cn2nc(CC3CC4(CC4)NC3=O)ccc2n1)C(C1CC1)C1CC1` (stereo partly drawn) [Compound 60, N-((1S)-2,2-dicyclopropyl-1-(6-((5-oxo-4-azaspiro[2.4]heptan-6-yl)methyl)imidazo[1,2-b]pyridazin-2-yl)ethyl)-1-ethyl-1H-pyrazole-5-carboxamide] was 0.1 to 1 µM; that for `CCn1nccc1C(=O)N[C@H](c1cn2nc(CC3C(=O)NC4CC3C4)ccc2n1)[C@H]1CC[C@H](C)CC1` (stereo partly drawn) [Compound 61, 1-ethyl-N-((1S)-((1r,4S)-4-methylcyclohexyl)(6-((3-oxo-2-azabicyclo[3.1.1]heptan-4-yl)methyl)imidazo[1,2-b]pyridazin-2-yl)methyl)-1H-pyrazole-5-carboxamide] was 0.1 to 1 µM.
The value for `CCn1nccc1C(=O)N[C@H](c1cn2nc(CC3CC(F)(F)CNC3=O)c(NC(=O)OC)cc2n1)C1CCC(F)(F)CC1` (stereo partly drawn) [Compound 72, methyl (6-((5,5-difluoro-2-oxopiperidin-3-yl)methyl)-2-((S)-(4,4-difluorocyclohexyl)(1-ethyl-1H-pyrazole-5-carboxamido)methyl)imidazo[1,2-b]pyridazin-7-yl)carbamate] was 0.1 to 1 µM; that for `CCn1nccc1C(=O)N[C@H](c1cn2nc(CC3CC(F)(F)CNC3=O)c(OC)cc2n1)C1CCC(F)(F)CC1` (stereo partly drawn) [Compound 75, N-((1S)-(6-((5,5-difluoro-2-oxopiperidin-3-yl)methyl)-7-methoxyimidazo[1,2-b]pyridazin-2-yl)(4,4-difluorocyclohexyl)methyl)-1-ethyl-1H-pyrazole-5-carboxamide] was over 1 µM; that for `CCn1nccc1C(=O)N[C@H](c1cn2nc(C[C@H]3C[C@@H](C(F)(F)F)CNC3=O)c(C#N)cc2n1)C1CCC(F)(F)CC1` [Compound 81] was 0.1 to 1 µM.
Consider `CCn1nccc1C(=O)N[C@H](c1cn2nc(CC3C[C@@H](C(F)(F)F)CNC3=O)c(COC)cc2n1)C1CCC(F)(F)CC1` (stereo partly drawn) [Compound 84, N-((1S)-(4,4-difluorocyclohexyl)(7-(methoxymethyl)-6-(((5R)-2-oxo-5-(trifluoromethyl)piperidin-3-yl)methyl)imidazo[1,2-b]pyridazin-2-yl)methyl)-1-ethyl-1H-pyrazole-5-carboxamide], for which the IC50 was 0.1 to 1 µM.
As for `CCn1nccc1C(=O)N[C@H](c1cn2nc(CC3C[C@@H](C(F)(F)F)CNC3=O)ccc2n1)C1CCC(F)(F)CC1` (stereo partly drawn) [Compound 95, N-((1S)-(4,4-difluorocyclohexyl)(6-(((5R)-2-oxo-5-(trifluoromethyl)piperidin-3-yl)methyl)imidazo[1,2-b]pyridazin-2-yl)methyl)-1-ethyl-1H-pyrazole-5-carboxamide], the figure is 0.1 to 1 µM; as for `CCn1nccc1C(=O)N[C@H](c1cn2nc(CC3C[C@@H](C(F)(F)F)CNC3=O)ccc2n1)C(C1CC1)C1CC1` (stereo partly drawn) [Compound 96, N-((1S)-2,2-dicyclopropyl-1-(6-(((5R)-2-oxo-5-(trifluoromethyl)piperidin-3-yl)methyl)imidazo[1,2-b]pyridazin-2-yl)ethyl)-1-ethyl-1H-pyrazole-5-carboxamide], 0.1 to 1 µM.
Consider `CCn1nccc1C(=O)N[C@H](c1cn2nc(CC3C[C@@H](C(F)(F)F)CNC3=O)ccc2n1)[C@H]1CC[C@H](C)CC1` (stereo partly drawn) [Compound 97, 1-ethyl-N-((1S)-((1R.4S)-4-methylcyclohexyl)(6-(((5R)-2-oxo-5-(trifluoromethyl)piperidin-3-yl)methyl)imidazo[1,2-b]pyridazin-2-yl)methyl)-1H-pyrazole-5-carboxamide], for which the IC50 lay in the range of 0.1 to 1 µM.
As for `Cc1nonc1C(=O)N[C@H](c1cn2nc(CC3C[C@@H](C(F)(F)F)CNC3=O)ccc2n1)C1CCC(F)(F)CC1` (stereo partly drawn) [Compound 100, N-((1S)-(4,4-difluorocyclohexyl)(6-(((5R)-2-oxo-5-(trifluoromethyl)piperidin-3-yl)methyl)imidazo[1,2-b]pyridazin-2-yl)methyl)-4-methyl-1,2,5-oxadiazole-3-carboxamide], the figure is 0.1 to 1 µM; as for `O=C(N[C@H](c1cn2nc(CC3C[C@@H](C(F)(F)F)CNC3=O)ccc2n1)C1CCC(F)(F)CC1)c1ccnn1CCF` (stereo partly drawn) [Compound 101, N-((1S)-(4,4-difluorocyclohexyl)(6-(((5R)-2-oxo-5-(trifluoromethyl)piperidin-3-yl)methyl)imidazo[1,2-b]pyridazin-2-yl)methyl)-1-(2-fluoroethyl)-1H-pyrazole-5-carboxamide], 0.1 to 1 µM; as for `CC(C)c1nocc1C(=O)N[C@H](c1cn2nc(CC3C[C@@H](C(F)(F)F)CNC3=O)ccc2n1)C1CCC(F)(F)CC1` (stereo partly drawn) [Compound 102, N-((1S)-(4,4-difluorocyclohexyl)(6-(((5R)-2-oxo-5-(trifluoromethyl)piperidin-3-yl)methyl)imidazo[1,2-b]pyridazin-2-yl)methyl)-3-isopropylisoxazole-4-carboxamide], under 0.1 µM.
